# Assay results as given in patent US12286625B2, “Inhibition of mir-22 miRNA by APT-110” (AptamiR Therapeutics, Inc., priority 2016, dated 2025).
# Where two headings read alike, the source gives them in different places.
# How the values were obtained:
# [1] = tested on: human subcutaneous adipocytes; assay: O2 consumption rate (OCR), Seahorse XF24 with XF Palmitate-BSA Fatty Acid Oxidation kit, human subcutaneous adipocytes; type: cell-based; conditions: for basal OCR vs control adipocytes: basal conditions, rosiglitazone 100 nM or APT-110 50 nM, control BSA
# Description: To characterize the effects of miR-22-3p inhibition on energy utilization in human subcutaneous adipocytes in culture, O2 consumption rate (OCR) was measured with the XF24 Analyzer (Seahorse Bioscience) using the XF Palmitate-BSA Fatty Acid Oxidation substrate kit during the successive addition of Oligomycin, FCCP, and Antimycin/Rotenone, following the manufacturer instructions.
# Human subcutaneous pre-adipocytes (ZenBio, NC) were seeded into 96-well plates and differentiated for 7 days, then placed in maintenance medium according to the manufacturer's instructions. On Day 14, the adipocytes were transfected with 50 nM of the miR-22-3p inhibitor APT-110. Medium was exchanged every 2 to 3 days and Seahorse assay was performed on Day 21. Negative control was bovine serum albumin (BSA) and positive control was 100 nM rosiglitazone throughout the culture.
# DIO C57BL/6J male mice = assay: APT-110 in 14-week old DIO mice on 60% high fat diet treated 6 weeks; type: in vivo, mouse
# Description: A similar study was performed in 14-week old mice (n=9 per group) which were randomized into 2 groups according to similar body weights and kept on 60% high fat diet (Research Diet D12492) for 6 weeks. One group of mice received subcutaneous injections in the left inguinal fat pad of a custom-designed miR-22-3p inhibitor (APT-110, 18 nucleotides long, 15 mg/kg) on days 0, 2, and 4 of the first week, then once a week for the next 5 weeks. The other group kept on 60% high fat diet received saline injections.
# Body composition was measured by NMR at the end of the study (week 6 of treatment). Fat mass was 30% lower in the APT-110 miR-22-3p inhibitor group on 60% fat diet than that in the control group on saline and 60% fat diet (11.29±0.87 vs. 16.11±0.87 grams, p<0.0017). Lean mass was similar in both groups at week 6 of treatment (21.74±0.99 vs. 22.33±0.63 grams).
# DIO male C57BL/6J mice were started on a 60% high fat diet at the age of 6-week old and were randomized according to body weight into treatment groups (8 to 12 animals per group) at various ages. After acclimation for 1 to 2 weeks, the mice were administered subcutaneous injections of saline or a miR-22 antagomir in the left inguinal fat pad (injections on Days 0, 2, and 4, then once a week for up to 12 weeks) while they remained on the 60% high fat diet. In some studies, another control group of mice was switched back to a normal 10% fat chow at the time of treatment randomization.
# Blood samples were collected by retro-orbital bleeds or cut tip of the tail. Mice underwent body composition analysis by NMR (Bruker LF50 BCA-Analyzer) while they were gently restrained to keep them quiet during this non-invasive measurement. Liver, heart, inguinal fat, perirenal or epididymal fat, and subscapular fat were weighed and collected for histology (10% formalin fixed, then transferred to 70% ethanol for shipment) and gene expression (flash frozen in duplicate). Spleens were weighed and discarded. Blood was collected and processed into serum or plasma at the time of necropsy by cardiocentesis. Serum level of alanine aminotransferase (ALT), aspartate aminotransferase (AST), glucose, insulin, cholesterol and triglycerides were measured.
# DIO C57BL/6 male mice = type: in vivo, mouse; parameters: Plasma adiponectin: unit not given here; conditions: for energy expenditure after i.p. injection: 0.5 mg/kg i.p.
# Description: A dedicated study was conducted under contract at the University of Buckingham Institute of Translational Medicine (Pr. M A Cawthorne, Pr. P Trayhurn, Dr. C. Stocker) to assess the energetic and metabolic responses to the APT-110 miR-22-3p inhibitor treatment in adult Diet-Inducted-Obese (DIO) C57BL/6 male mice over the course of 3 months. Twenty-four DIO male C57BL/6 mice, who started on 60% high fat diet at the age of 7 weeks, were purchased at 15 weeks of age from the Jackson Laboratory, USA. The mice remained on a 60% high fat diet (Research Diet D12492) throughout the experiment. The mice were kept on a 12 h light/12 h dark light cycle with lights on at 08h00 and at a room temperature of 25±1° C. The mice were allocated to 2 groups of 12 mice each, (2 mice/cage) so that mean and standard deviation for body weight, blood glucose and serum insulin were similar across both groups. Mice were acclimated for two weeks before treatment initiation.
# For oral glucose tolerance test, food was removed six hours prior to the start of the glucose tolerance test (09h00) and animals were placed in clean cages. Mice were dosed with glucose at T=0 minutes. Glucose was dissolved in water and given to the mice by oral gavage at a dose of 2.5 g/kg p.o. Blood samples […] were taken from the cut tip of the tail after the application of Lidocaine gel (Biorex Laboratories UK) for the analysis of glucose concentration at −30, 0, 30, 60, 120 and 180 minutes relative to glucose administration. Blood samples were also taken at −30 and +30 minutes for insulin analysis (Crystal Chem Inc. Cat INS90090). Food was returned to the animals at the end of the glucose tolerance test. Plasma nonesterified Fatty Acids (NEFA, Crystal Wako Chemicals Gmbh, Neuss, Germany, Cat 999-75406), leptin (Crystal Chem. Inc., Cat LEP90030) and adiponectin (Alpco Diagnostics, Salem, New Hampshire, Cat 47-ADPMS-E01) were measured as per the manufacturers' recommendations. Body fat and lean content was measured by Nuclear Magnetic Resonance (NMR). Comparison with calibrated standards allowed identification of types of tissue by their density. Dedicated software was used to quantify amounts of adipose and […]. The mice were gently restrained, sufficient to keep them quiescent during this non-invasive technique.
# To measure physical activity, mice were kept in their original cages of 2 mice per cage. Recordings were taken using an infra-red recorder linked to a laptop. Recordings were made on the hour every hour from 7 pm until 8 am. Each recording was of 10-minute duration. Lights went out at 8 pm and came on again at 8 am. Analysis of activity was done by virtually drawing 2 lines across each cage (thus dividing them into 3 equal parts). Recordings were analyzed by eye and the number of times a line was broken by a mouse in each 10-minute segment was scored. Energy expenditure was measured at several time points during the course of the study by open-circuit indirect calorimetry with mice kept in their home cages (6 cages of 2 mice per experimental group (Arch, J. R., et al., 2006; Arch, J. R. and P. Trayhurn, 2013).
# At the end of the study, tissues and organs were collected, then frozen for future gene expression analysis or placed in 10% neutral buffered formalin solution (Sigma-Aldrich Cat HT501128), then washed in PBS, pH 7.4 and transferred to 70% ethanol for subsequent processing for histologic and immunohistochemistry analyses.
# In some studies, non-esterified fatty acids (NEFA), plasma leptin and adiponectin were also measured and oral glucose tolerance tests (OGTT) were performed. Oral glucose tolerance test was performed as follows: Six hours prior to the start of the glucose tolerance test (09h00), food was removed and animals were given clean cages. Mice were dosed with glucose at T=0 minutes. […]
# [2] = tested on: UCP-1 protein expression in human subcutaneous adipocytes; assay: UCP-1 protein expression by immunofluorescence in human subcutaneous adipocytes; type: cell-based; conditions: Day 14; 50 nM APT-110 or 100 nM rosiglitazone; PBS 48±3%
# Description: To assess the effects of miR-22 inhibition on mitochondrial mass and activity, metabolic rate and energy expenditure, in vitro and in vivo experiments were carried out. In vitro intra-cellular assessment of mitochondrial mass and activities, as well as energy expenditure during miR-22 inhibition of human subcutaneous adipocytes were examined. In the model of primary culture of human subcutaneous adipocytes differentiated for 3 days, then transfected with 50 nM of the miR-22-3p inhibitor APT-110 and maintained in culture (n=6 per condition), the following parameters were assessed on Day 14. […]
# (§1) Human subcutaneous preadipocytes purchased from ZenBio, NC (Catalog #: SP-F-SL) were plated at confluence in 96-well plates and allowed to attach overnight in preadipocyte medium (DMEM/Ham's F-12 (1:1, v/v), HEPES buffer, fetal bovine serum and antibiotics) following the supplier's instructions. […] Using a 96-well format, gene expression was determined by q-RT-PCR kit following the Manufacturer's instructions (TaqMan Gene Expression Cells-to-Ct kit, Life Technologies, cat #AM1728) and a 7900 HT Fast Real Time PCR System (Applied Biosystems). […] Mitochondrial mass and activity as well as UCP-1 protein expression were determined by high content imaging (ArrayScan XTI and BMG Fluostar Galaxy reader), with UCP-1 antibody (abcam cat #ab10983), and MitoTracker® Deep Red FM (ThermoFisher M22426).
# [3] = tested on: human subcutaneous adipocytes; assay: Mitochondrial content/mass by MitoTracker in human subcutaneous adipocytes; type: cell-based; conditions: Day 14; Rosiglitazone 100 nM
# Description: To assess the effects of miR-22 inhibition on mitochondrial mass and activity, metabolic rate and energy expenditure, in vitro and in vivo experiments were carried out. In vitro intra-cellular assessment of mitochondrial mass and activities, as well as energy expenditure during miR-22 inhibition of human subcutaneous adipocytes were examined. In the model of primary culture of human subcutaneous adipocytes differentiated for 3 days, then transfected with 50 nM of the miR-22-3p inhibitor APT-110 and maintained in culture (n=6 per condition), the following parameters were assessed on Day 14.
# as §1
# [4] = Saenger 1989; cited from earlier work
# [5] = Day −2 (before treatment), 6 hours fast
# [6] = end of 12-week study, Mean ± SEM
molecule,measurement,setting,value
5′-5mCpsTpsTps2′OMeCpsTpsTps5mCpsApsAps2′OMeCpsTpsGpsGps5mCpsApsGps5mCpsT-3′ [APT-110],non-mitochondrial respirations and proton leak on addition of palmitate,[1]; APT-110 50 nM + palmitate,dramatic increase
same,maximum respiration increase,"[1]; APT-110 50 nM, assay Day 21",33%
same,basal OCR vs control adipocytes,[1],2 fold
same,weight increase week 6 vs Week 0,"DIO C57BL/6J male mice; 60% high fat diet, 15 mg/kg SC, saline 22%",6%
same,blood glucose after fasting for 4 hours,"DIO C57BL/6J male mice; Day 35 of treatment, saline 245±8",183 ± 11 mg/dL
same,random blood glucose,"DIO C57BL/6J male mice; Day 44 of treatment, at necropsy, saline 341±9",212 ± 12 mg/dL
same,fat mass lower than control group on saline,"DIO C57BL/6J male mice; NMR, week 6",30%
same,fat mass,"DIO C57BL/6J male mice; NMR, week 6, saline 16.11±0.87",11.29±0.87 grams
same,lean mass,"DIO C57BL/6J male mice; NMR, week 6, saline 22.33±0.63",21.74±0.99 grams
same,body weight,DIO C57BL/6J male mice; Week 0 (baseline),34.15±0.53 grams
same,serum cholesterol,"DIO C57BL/6J male mice; at necropsy, saline 164±6",110 ± 5 mg/dL
same,body weight,"DIO C57BL/6J male mice; week 6, 60% high fat diet, saline 41.73±1.07",36.16±0.67 grams
same,24-hr energy expenditure vs saline,DIO C57BL/6 male mice; Day 10 of treatment,did not show a difference
same,energy expenditure vs saline,"DIO C57BL/6 male mice; Day 11, confirmed on Day 28 and Day 52",increase in energy expenditure
same,Blood glucose,"DIO C57BL/6 male mice; Day 44, 6 hours fast",9.01 ± 0.19 mmol/L
same,Plasma adiponectin,"DIO C57BL/6 male mice; Day 44, 6 hours fast",2.66 ± 0.15
same,Plasma insulin,"DIO C57BL/6 male mice; Day 44, 6 hours fast",295 ± 25 pmol/L
same,Plasma leptin,"DIO C57BL/6 male mice; Day 44, 6 hours fast",4.85 ± 0.42 nmol/L
same,Oral Glucose Tolerance Test profile,"DIO C57BL/6 male mice; Day 75, glucose 2.5 g/kg p.o., saline mice diabetic profile",normal profile
same,Blood glucose,"DIO C57BL/6 male mice; Day 79, 6 hours fast",5.71 ± 0.18 mmol/L
same,Plasma adiponectin,"DIO C57BL/6 male mice; Day 79, 6 hours fast",3.16 ± 0.13
same,Plasma insulin,"DIO C57BL/6 male mice; Day 79, 6 hours fast",220 ± 17 pmol/L
same,Plasma leptin,"DIO C57BL/6 male mice; Day 79, 6 hours fast",4.21 ± 0.54 nmol/L
same,Cholesterol,"DIO C57BL/6 male mice; Day 85, 6-hour fast, p<0.0001",4.67 ± 0.16 mmol/L
same,Non Esterified Fatty Acids,"DIO C57BL/6 male mice; Day 85, 6-hour fast, p=0.003",1.71 ± 0.08 mmol/L
same,Triglycerides,"DIO C57BL/6 male mice; Day 85, 6-hour fast, p=0.11",1.46 ± 0.08 mmol/L
same,Blood glucose,DIO C57BL/6 male mice; [5],6.69 ± 0.27 mmol/L
same,Plasma adiponectin,DIO C57BL/6 male mice; [5],3.16 ± 0.13
same,Plasma insulin,DIO C57BL/6 male mice; [5],179 ± 18 pmol/L
same,Plasma leptin,DIO C57BL/6 male mice; [5],3.11 ± 0.45 nmol/L
same,fat mass difference vs saline (NMR),"DIO C57BL/6 male mice; Week 12, Day 82",−12%
same,lean mass (NMR),"DIO C57BL/6 male mice; Week 12, Day 82",identical in both groups
same,total daily energy expenditure greater than saline,"DIO C57BL/6 male mice; average, day 11 to day 53",13%
same,insulin sensitivity (fasting Insulin/Glucose ratio over time),"DIO C57BL/6 male mice; course of the 12-week study, control group developed insulin resistance",maintain the same level of insulin sensitivity
same,Epdidymal fat weight,DIO C57BL/6 male mice; [6],1.8 ± 0.978 grams
same,Inguinal fat weight,DIO C57BL/6 male mice; [6],3.166 ± 0.135 grams
same,Liver weight,DIO C57BL/6 male mice; [6],2.442 ± 0.127 grams
same,Peri-renal fat weight,DIO C57BL/6 male mice; [6],1.183 ± 0.096 grams
same,Subscapular fat weight,DIO C57BL/6 male mice; [6],0.202 ± 0.020 grams
same,weight gain vs mice receiving saline injections,"DIO C57BL/6 male mice; week 12 of treatment, 60% high fat diet",−30%
"C[C@H](Cc1ccc2c(c1)OC(C(=O)[O-])(C(=O)[O-])O2)NC[C@H](O)c1cccc(Cl)c1.[Na+].[Na+] [CL316243, reference compound]",energy expenditure after i.p. injection,DIO C57BL/6 male mice; APT-110 group,increased
same,energy expenditure after i.p. injection,DIO C57BL/6 male mice; control (saline) group,increased
"CN(CCOc1ccc(CC2SC(=O)NC2=O)cc1)c1ccccn1 (stereo not shown) [Rosiglitazone, reference compound]",maximum respiration vs control,"[1]; after FCCP, rosiglitazone 100 nM",4 fold
same,basal OCR vs control adipocytes,[1],4 fold
same,number of UCP1 positive cells,[2],58±2%
same,cell density relative to miR-22-3p inhibitor condition,[3],3 times more cells
Nc1ncnc2c1ncn2[C@@H]1O[C@H](CO)[C@@H](O)[C@H]1O [adenosine],pKa of the conjugate acid,[4],3.52
Nc1nc2c(ncn2[C@@H]2O[C@H](CO)[C@@H](O)[C@H]2O)c(=O)[nH]1 [guanosine],pKa,[4],9.42
Cc1cn([C@H]2C[C@H](O)[C@@H](CO)O2)c(=O)[nH]c1=O [thymidine],pKa,[4],9.93
